pIC50: −log10 of the molar value.
Target: Metabotropic glutamate receptor 4 (Homo sapiens, UniProt Q14833)
Experiment: In Vitro Testing of mGluR4 Potency
Protocol: The in vitro activity of the compounds according to the invention may be investigated as follows:[0111]The HEK293 cell overexpressing the human metabotropic Glutamate 4 receptor are thawed at 37 C. and immediately diluted with cell culture medium. After centrifugation, the cell pellet is re-suspended in medium and then distributed from a stirred spinner flask into the wells of the assay plate. The plates are incubated for one hour at room temperature before they are incubated for 24 hours at 37 C./5% CO2. After washing the cells in the plate three times with 80 uL HBSS/HEPES buffer (10 uL buffer remained in the wells after washing), 5 uL per well of compounds diluted in HBSS/HEPES buffer containing 0.2% BSA (final concentration: 0.1%) and 1 mM IBMX (final concentration: 0.5 mM) are added to the wells of the assay plate. Thereafter 5 uL per well of L-Glutamic acid (final concentration: 10 uM), forskolin (final concentration: 1 uM) and 1 mM IBMX (final concentration: 0.5 mM) dissolved in HBSS/HEPES buffer containing 0.2% BSA (final concentration: 0.1%) are added to the assay plate (final DMSO concentration: 1%). […] The emission at 615 nm and 665 nm (Excitation wavelength: 320 nm) are measured on the EnVision reader (Perkin Elmer). The ratio between the emission at 665 nm and 615 is calculated by the reader. […]

Sequence of Metabotropic glutamate receptor 4 (Q14833 whole entry): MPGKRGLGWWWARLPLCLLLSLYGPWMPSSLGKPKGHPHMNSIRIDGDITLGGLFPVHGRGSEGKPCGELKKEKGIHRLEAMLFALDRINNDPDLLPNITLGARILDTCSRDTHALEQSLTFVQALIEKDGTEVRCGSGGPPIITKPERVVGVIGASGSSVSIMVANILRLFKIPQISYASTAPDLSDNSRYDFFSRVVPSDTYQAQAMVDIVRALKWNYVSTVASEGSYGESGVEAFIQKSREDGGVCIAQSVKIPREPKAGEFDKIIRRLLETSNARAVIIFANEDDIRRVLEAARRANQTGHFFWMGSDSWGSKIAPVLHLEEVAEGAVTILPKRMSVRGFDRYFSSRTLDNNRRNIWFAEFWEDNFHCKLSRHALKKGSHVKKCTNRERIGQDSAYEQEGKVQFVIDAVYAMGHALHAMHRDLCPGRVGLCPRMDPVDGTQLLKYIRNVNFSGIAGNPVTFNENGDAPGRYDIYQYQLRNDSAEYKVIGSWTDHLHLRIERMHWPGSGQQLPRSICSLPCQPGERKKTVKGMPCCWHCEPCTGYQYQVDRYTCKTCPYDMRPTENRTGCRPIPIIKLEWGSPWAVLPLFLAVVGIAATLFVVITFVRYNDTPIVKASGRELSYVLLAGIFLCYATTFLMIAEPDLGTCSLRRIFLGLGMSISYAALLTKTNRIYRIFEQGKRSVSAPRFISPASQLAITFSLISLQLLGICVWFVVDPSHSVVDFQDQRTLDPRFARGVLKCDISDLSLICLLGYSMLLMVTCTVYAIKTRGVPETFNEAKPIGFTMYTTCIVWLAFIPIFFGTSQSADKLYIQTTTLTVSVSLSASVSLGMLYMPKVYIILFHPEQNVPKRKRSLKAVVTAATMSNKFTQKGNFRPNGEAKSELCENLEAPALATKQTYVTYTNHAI

- pIC50: 7.64
SMILES: Cc1cnc(C(=O)N[C@H](c2nc3cc(F)c(F)cc3n2C)C2CC2)cn1 [US20240182453, Example 66]

Reference: BindingDB's records for patent US20240182453 (Boehringer Ingelheim International, 2024)
